Measurements reported in PubChem BioAssay AID1745860.

Target: Sodium-dependent noradrenaline transporter (Homo sapiens) (UniProt P23975)
Experiment: SLC6A2 noradrenaline transporter inhibitors, dose response, HEK293 JumpIn overexpressing cells, impedance (AID 1745860)
Conditions: HEK293 JumpIn SLC6A2 OE, impedance TRACT

Sodium-dependent noradrenaline transporter (Homo sapiens), sequence (P23975 whole entry, looked up): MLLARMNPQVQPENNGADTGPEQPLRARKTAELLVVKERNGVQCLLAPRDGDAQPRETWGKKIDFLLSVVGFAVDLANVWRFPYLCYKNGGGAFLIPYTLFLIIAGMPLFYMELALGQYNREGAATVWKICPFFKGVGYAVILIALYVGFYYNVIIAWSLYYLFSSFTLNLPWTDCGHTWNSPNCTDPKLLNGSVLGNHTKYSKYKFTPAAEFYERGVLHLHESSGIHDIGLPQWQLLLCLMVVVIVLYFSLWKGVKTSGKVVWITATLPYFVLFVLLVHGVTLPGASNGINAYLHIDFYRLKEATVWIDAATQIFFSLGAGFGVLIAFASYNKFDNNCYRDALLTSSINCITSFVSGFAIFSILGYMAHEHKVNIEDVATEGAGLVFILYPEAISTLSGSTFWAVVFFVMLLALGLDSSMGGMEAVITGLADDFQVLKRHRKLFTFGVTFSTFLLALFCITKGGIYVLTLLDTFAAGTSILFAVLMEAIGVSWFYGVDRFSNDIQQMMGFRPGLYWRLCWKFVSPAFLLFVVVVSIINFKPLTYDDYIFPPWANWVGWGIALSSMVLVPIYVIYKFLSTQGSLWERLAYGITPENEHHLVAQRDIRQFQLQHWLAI

Compound: CNC[C@H](O)c1ccc(O)c(O)c1
- IC50: 4 µM
